# From patent publication US20230139171A1 (SITA Information Networking Computing UK Limited, priority 2019, published 2023)
# What was measured:
# Format in all cases: cell-based
# human TLR9 = target: T1, human TLR9 (Homo sapiens, UniProt Q9NR96); assay: TLR9 inhibition reporter assay (HEK-Blue cells, SEAP reporter, ODN2006 stimulation); conditions: HEK-Blue cells overexpressing human TLR9, SEAP reporter, ODN2006 5 nM
# T1 construct: host or cells: HEK-Blue cells
# T1 sequence (Q9NR96 26-1032): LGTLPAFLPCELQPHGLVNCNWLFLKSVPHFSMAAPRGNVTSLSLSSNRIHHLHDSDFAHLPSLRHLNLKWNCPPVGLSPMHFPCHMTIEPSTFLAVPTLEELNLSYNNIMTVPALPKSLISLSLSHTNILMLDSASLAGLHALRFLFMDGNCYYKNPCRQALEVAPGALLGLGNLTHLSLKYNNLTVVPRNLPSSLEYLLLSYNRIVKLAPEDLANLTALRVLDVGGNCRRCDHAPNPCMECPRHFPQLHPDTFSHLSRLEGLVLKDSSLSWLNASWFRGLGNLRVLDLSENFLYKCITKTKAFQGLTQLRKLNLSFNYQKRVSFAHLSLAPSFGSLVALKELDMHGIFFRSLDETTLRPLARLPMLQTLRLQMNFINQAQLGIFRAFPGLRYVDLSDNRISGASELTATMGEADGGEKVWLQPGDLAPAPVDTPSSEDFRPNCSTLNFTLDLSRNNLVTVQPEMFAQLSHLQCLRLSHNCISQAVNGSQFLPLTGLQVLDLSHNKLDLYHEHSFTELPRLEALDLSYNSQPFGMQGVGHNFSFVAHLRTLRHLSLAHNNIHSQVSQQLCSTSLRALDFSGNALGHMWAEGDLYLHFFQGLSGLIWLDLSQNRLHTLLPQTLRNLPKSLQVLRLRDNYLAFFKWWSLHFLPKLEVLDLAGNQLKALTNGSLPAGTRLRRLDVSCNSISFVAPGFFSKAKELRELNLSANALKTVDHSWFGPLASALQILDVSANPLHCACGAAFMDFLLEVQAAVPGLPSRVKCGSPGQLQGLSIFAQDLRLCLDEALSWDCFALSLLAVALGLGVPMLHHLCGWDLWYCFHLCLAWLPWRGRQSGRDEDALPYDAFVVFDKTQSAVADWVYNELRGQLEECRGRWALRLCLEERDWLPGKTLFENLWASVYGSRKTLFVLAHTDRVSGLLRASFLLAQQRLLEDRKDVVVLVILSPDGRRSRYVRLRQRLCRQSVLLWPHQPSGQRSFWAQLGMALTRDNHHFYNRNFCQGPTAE
# In short: (§1)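 Compound treatment: 30 min, RT, 0.05 nM–50 μM final. Agonist: TLR7 gardiquimod 7.5 μM; TLR8 R848 15.9 μM; TLR9 ODN2006 5 nM. Incubation 22 h, 37 °C, 5% CO2. Readout SEAP, HEK-Blue Detection.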
# human TLR8 = target: T2, human TLR8 (Homo sapiens, UniProt Q9NR97); assay: TLR8 inhibition reporter assay (HEK-Blue cells, SEAP reporter, R848 stimulation); conditions: HEK-Blue cells overexpressing human TLR8, SEAP reporter, R848 15.9 μM; read-out: TLR8 IC50
# T2 construct: host or cells: HEK-Blue cells
# T2 sequence (Q9NR97 27-1041): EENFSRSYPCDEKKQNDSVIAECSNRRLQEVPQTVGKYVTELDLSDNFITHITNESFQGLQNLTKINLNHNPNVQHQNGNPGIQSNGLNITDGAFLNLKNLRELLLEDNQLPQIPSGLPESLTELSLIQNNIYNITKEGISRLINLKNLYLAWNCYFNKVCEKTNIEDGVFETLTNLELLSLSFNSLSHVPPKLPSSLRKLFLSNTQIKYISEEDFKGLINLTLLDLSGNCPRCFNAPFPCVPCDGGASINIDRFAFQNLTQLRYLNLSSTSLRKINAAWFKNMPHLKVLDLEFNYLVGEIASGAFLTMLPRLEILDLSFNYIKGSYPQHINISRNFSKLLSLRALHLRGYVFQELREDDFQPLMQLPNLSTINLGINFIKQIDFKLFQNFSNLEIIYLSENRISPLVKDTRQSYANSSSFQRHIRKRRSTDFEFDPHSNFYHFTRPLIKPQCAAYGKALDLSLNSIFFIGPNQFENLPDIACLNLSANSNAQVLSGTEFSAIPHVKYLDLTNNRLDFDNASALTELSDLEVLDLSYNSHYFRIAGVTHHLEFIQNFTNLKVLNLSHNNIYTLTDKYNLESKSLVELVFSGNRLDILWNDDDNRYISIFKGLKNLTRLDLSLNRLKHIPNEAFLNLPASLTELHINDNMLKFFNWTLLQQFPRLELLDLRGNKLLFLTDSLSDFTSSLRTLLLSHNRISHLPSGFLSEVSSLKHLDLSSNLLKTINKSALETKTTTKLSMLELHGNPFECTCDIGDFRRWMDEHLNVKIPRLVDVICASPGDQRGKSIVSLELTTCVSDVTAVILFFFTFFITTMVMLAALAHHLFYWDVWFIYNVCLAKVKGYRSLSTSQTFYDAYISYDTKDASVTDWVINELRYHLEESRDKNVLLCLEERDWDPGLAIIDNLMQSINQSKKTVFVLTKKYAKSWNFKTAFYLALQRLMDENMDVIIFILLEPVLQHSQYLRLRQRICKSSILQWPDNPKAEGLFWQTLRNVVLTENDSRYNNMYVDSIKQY
# In short: as §1
# human TLR7 = target: T3, human TLR7 (Homo sapiens, UniProt Q9NYK1); assay: TLR7 inhibition reporter assay (HEK-Blue cells, SEAP reporter, gardiquimod stimulation); conditions: HEK-Blue cells overexpressing human TLR7, SEAP reporter, gardiquimod 7.5 μM; read-out: TLR7 IC50
# T3 construct: host or cells: HEK-Blue cells
# T3 sequence (Q9NYK1 27-1049): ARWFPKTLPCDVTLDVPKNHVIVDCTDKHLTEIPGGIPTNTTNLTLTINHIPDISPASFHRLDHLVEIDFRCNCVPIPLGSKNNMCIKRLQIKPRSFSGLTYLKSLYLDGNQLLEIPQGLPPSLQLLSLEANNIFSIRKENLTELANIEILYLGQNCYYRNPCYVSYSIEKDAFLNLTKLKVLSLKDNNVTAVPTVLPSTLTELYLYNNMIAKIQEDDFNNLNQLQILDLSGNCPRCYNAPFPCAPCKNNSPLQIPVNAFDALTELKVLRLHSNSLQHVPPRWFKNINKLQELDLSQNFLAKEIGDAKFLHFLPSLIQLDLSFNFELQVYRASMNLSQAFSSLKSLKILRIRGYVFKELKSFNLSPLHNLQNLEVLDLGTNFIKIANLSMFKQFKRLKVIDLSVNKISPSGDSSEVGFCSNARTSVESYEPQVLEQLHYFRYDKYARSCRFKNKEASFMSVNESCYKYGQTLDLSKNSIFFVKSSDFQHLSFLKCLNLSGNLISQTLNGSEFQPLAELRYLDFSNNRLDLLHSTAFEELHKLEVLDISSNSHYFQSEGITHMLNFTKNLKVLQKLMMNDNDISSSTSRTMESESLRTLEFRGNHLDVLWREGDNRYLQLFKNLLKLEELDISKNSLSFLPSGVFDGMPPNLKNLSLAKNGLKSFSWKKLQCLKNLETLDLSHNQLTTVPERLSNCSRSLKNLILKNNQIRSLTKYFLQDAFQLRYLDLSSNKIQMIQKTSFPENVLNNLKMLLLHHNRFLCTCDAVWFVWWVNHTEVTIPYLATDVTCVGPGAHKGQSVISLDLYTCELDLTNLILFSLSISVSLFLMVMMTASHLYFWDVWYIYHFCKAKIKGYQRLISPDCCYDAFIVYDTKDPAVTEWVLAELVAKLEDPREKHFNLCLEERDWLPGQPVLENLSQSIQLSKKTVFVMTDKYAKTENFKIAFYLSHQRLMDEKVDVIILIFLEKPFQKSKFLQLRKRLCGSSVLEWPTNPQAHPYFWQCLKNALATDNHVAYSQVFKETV
# In short: as §1
Structure (SMILES),IC50 (human TLR9) [nM],IC50 (human TLR8) [nM],IC50 (human TLR7) [nM]
"Cc1c(-c2[nH]c3sc(C4CCC(N5CC(O)C5)CC4)nc3c2C(C)C)cn2ncnc2c1C (single isomer, unassigned) [Example 224, 1-(4-(5-(7,8-dimethyl-[1,2,4]triazolo[1,5-a]pyridin-6-yl)-6-isopropyl-4H-pyrrolo[3,2-d]thiazol-2-yl)cyclohexyl)azetidin-3-ol]",9030,0.63,0.56
"Cc1c(-c2[nH]c3sc(C4CCC(N5CC(O)C5)CC4)nc3c2C(C)C)cn2ncnc2c1C (single isomer, unassigned) [Example 225, 1-(4-(5-(7,8-dimethyl-[1,2,4]triazolo[1,5-a]pyridin-6-yl)-6-isopropyl-4H-pyrrolo[3,2-d]thiazol-2-yl)cyclohexyl)azetidin-3-ol]",5490,3.94,2.56
"Cc1c(-c2[nH]c3sc(C4CCC(N5CC(F)C5)CC4)nc3c2C(C)C)cn2ncnc2c1C (single isomer, unassigned) [Example 226, 5-(7,8-dimethyl-[1,2,4]triazolo[1,5-a]pyridin-6-yl)-2-(4-(3-fluoroazetidin-1-yl)cyclohexyl)-6-isopropyl-4H-pyrrolo[3,2-d]thiazole]",6780,0.41,0.35
"Cc1c(-c2[nH]c3sc(C4CCC(N(C)CC(C)C)CC4)nc3c2C(C)C)cn2ncnc2c1C (single isomer, unassigned) [Example 228, 4-(5-(7,8-dimethyl-[1,2,4]triazolo[1,5-a]pyridin-6-yl)-6-isopropyl-4H-pyrrolo[3,2-d]thiazol-2-yl)-N-isobutyl-N-methylcyclohexan-1-amine]",8860,1.46,2.18
"Cc1c(-c2[nH]c3sc(C4CCC(N(C)CC(C)C)CC4)nc3c2C(C)C)cn2ncnc2c1C (single isomer, unassigned) [Example 229, 4-(5-(7,8-dimethyl-[1,2,4]triazolo[1,5-a]pyridin-6-yl)-6-isopropyl-4H-pyrrolo[3,2-d]thiazol-2-yl)-N-isobutyl-N-methylcyclohexan-1-amine]",4960,3.71,7.1
"Cc1c(-c2[nH]c3sc(C4CCC(NC5CCS(=O)(=O)C5)CC4)nc3c2C(C)C)cn2ncnc2c1C (single isomer, unassigned) [Example 231, 3-((4-(5-(7,8-dimethyl-[1,2,4]triazolo[1,5-a]pyridin-6-yl)-6-isopropyl-4H-pyrrolo[3,2-d]thiazol-2-yl)cyclohexyl)amino)tetrahydrothiophene 1,1-dioxide]",49500,1.19,6.32

# The next lines start with the values.
IC50 (human TLR9) [nM],IC50 (human TLR8) [nM],IC50 (human TLR7) [nM],Structure (SMILES)
18200,11.4,4.43,"Cc1c(-c2[nH]c3sc(C4CCC(N5CC(F)C5)CC4)nc3c2C(C)C)cn2ncnc2c1C (single isomer, unassigned) [Example 227, 5-(7,8-dimethyl-[1,2,4]triazolo[1,5-a]pyridin-6-yl)-2-(4-(3-fluoroazetidin-1-yl)cyclohexyl)-6-isopropyl-4H-pyrrolo[3,2-d]thiazole]"
> 50000,7.87,4.19,"Cc1c(-c2[nH]c3sc(C4CCC(NC5CCS(=O)(=O)C5)CC4)nc3c2C(C)C)cn2ncnc2c1C (single isomer, unassigned) [Example 232, 3-((4-(5-(7,8-dimethyl-[1,2,4]triazolo[1,5-a]pyridin-6-yl)-6-isopropyl-4H-pyrrolo[3,2-d]thiazol-2-yl)cyclohexyl)amino)tetrahydrothiophene 1,1-dioxide]"
> 50000,0.59,2.3,"Cc1c(-c2[nH]c3sc(C4CCC(N5CC6(C5)CS(=O)(=O)C6)CC4)nc3c2C(C)C)cn2ncnc2c1C (single isomer, unassigned) [Example 233, 6-(4-(5-(7,8-dimethyl-[1,2,4]triazolo[1,5-a]pyridin-6-yl)-6-isopropyl-4H-pyrrolo[3,2-d]thiazol-2-yl)cyclohexyl)-2-thia-6-azaspiro[3.3]heptane 2,2-dioxide]"
> 50000,59.8,15.1,"Cc1c(-c2[nH]c3sc(C4CCC(N5CC6(C5)CS(=O)(=O)C6)CC4)nc3c2C(C)C)cn2ncnc2c1C (single isomer, unassigned) [Example 234, 6-(4-(5-(7,8-dimethyl-[1,2,4]triazolo[1,5-a]pyridin-6-yl)-6-isopropyl-4H-pyrrolo[3,2-d]thiazol-2-yl)cyclohexyl)-2-thia-6-azaspiro[3.3]heptane 2,2-dioxide]"
16600,1.01,1.05,"Cc1c(-c2[nH]c3sc(C4CCC(N5CC(O)(C(F)(F)F)C5)CC4)nc3c2C(C)C)cn2ncnc2c1C (single isomer, unassigned) [Example 235, 1-(4-(5-(7,8-dimethyl-[1,2,4]triazolo[1,5-a]pyridin-6-yl)-6-isopropyl-4H-pyrrolo[3,2-d]thiazol-2-yl)cyclohexyl)-3-(trifluoromethyl)azetidin-3-ol]"
